Columns and labels:
Assay in all cases: BIO3-BIO1 mutant enzyme activity in the presence of herbicide, percentage inhibition (fluorometric DAPA assay)
Assay type in all cases: biochemical
Settings in all cases: read-out: percentage inhibition
[1] = molecular target: T1, Arabidopsis thaliana BIO3-BIO1 (BioDA) mutants (Arabidopsis thaliana, UniProt B0F481, A609I)
T1 construct: with the predicted N-terminal mitochondrial transit peptide removed; 6xHis-tag (N); thrombin cleavage site (N); made in house; host or cells: E. coli BL21 (DE3) bioA
T1 sequence (B0F481 23-833 A609I): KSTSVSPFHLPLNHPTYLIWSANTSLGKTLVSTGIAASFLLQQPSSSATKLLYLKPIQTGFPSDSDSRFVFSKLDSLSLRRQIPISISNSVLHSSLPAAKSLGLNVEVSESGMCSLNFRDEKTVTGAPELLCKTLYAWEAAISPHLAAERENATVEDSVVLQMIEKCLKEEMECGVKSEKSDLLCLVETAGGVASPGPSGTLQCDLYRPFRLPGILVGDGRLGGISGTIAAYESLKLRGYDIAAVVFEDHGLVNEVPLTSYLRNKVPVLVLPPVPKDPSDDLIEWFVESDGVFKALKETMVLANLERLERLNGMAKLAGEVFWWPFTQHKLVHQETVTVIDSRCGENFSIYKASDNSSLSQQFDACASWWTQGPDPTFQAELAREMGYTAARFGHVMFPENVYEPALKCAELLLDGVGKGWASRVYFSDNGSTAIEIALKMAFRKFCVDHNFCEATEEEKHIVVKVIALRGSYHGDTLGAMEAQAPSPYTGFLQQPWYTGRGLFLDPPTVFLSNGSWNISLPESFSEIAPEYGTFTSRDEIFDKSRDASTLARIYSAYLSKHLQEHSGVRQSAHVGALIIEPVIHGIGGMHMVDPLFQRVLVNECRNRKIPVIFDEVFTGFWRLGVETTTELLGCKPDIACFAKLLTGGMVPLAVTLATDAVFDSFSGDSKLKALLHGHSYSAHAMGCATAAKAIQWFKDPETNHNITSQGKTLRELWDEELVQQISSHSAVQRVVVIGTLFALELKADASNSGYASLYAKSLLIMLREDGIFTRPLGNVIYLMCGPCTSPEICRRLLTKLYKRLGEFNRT
Method in brief: (§1)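 His-tagged Arabidopsis BIO3-BIO1 mutants, expressed in E. coli and purified by IMAC and SEC, were preincubated at 50 nM with herbicide for 10 min at 20 °C in EPPS pH 8.6 with pyridoxal phosphate. Reaction with 100 μM spermidine and 20 μM KAPA ran 75 min at 20 °C; DAPA was derivatised with o-phthalaldehyde and read at ex 410/em 470 nm. […].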

[2] = molecular target: T2, Arabidopsis thaliana BIO3-BIO1 (BioDA) mutants (Arabidopsis thaliana, UniProt B0F481, C388D)
T2 construct: with the predicted N-terminal mitochondrial transit peptide removed; 6xHis-tag (N); thrombin cleavage site (N); made in house; host or cells: E. coli BL21 (DE3) bioA
T2 sequence (B0F481 23-833 C388D): as the sequence (B0F481 23-833 A609I) above, with C366D, I587A counted along it
Method in brief: as §1

[3] = molecular target: T3, Arabidopsis thaliana BIO3-BIO1 (BioDA) mutants (Arabidopsis thaliana, UniProt B0F481, F348E)
T3 construct: with the predicted N-terminal mitochondrial transit peptide removed; 6xHis-tag (N); thrombin cleavage site (N); made in house; host or cells: E. coli BL21 (DE3) bioA
T3 sequence (B0F481 23-833 F348E): as the sequence (B0F481 23-833 A609I) above, with F326E, I587A counted along it
Method in brief: as §1

[4] = molecular target: T4, Arabidopsis thaliana BIO3-BIO1 (BioDA) mutants (Arabidopsis thaliana, UniProt B0F481, F348N)
T4 construct: with the predicted N-terminal mitochondrial transit peptide removed; 6xHis-tag (N); thrombin cleavage site (N); made in house; host or cells: E. coli BL21 (DE3) bioA
T4 sequence (B0F481 23-833 F348N): as the sequence (B0F481 23-833 A609I) above, with F326N, I587A counted along it
Method in brief: as §1

[5] = molecular target: T5, Arabidopsis thaliana BIO3-BIO1 (BioDA) mutants (Arabidopsis thaliana, UniProt B0F481, F348V)
T5 construct: with the predicted N-terminal mitochondrial transit peptide removed; 6xHis-tag (N); thrombin cleavage site (N); made in house; host or cells: E. coli BL21 (DE3) bioA
T5 sequence (B0F481 23-833 F348V): as the sequence (B0F481 23-833 A609I) above, with F326V, I587A counted along it
Method in brief: as §1

[6] = molecular target: T6, Arabidopsis thaliana BIO3-BIO1 (BioDA) mutants (Arabidopsis thaliana, UniProt B0F481, G513L)
T6 construct: with the predicted N-terminal mitochondrial transit peptide removed; 6xHis-tag (N); thrombin cleavage site (N); made in house; host or cells: E. coli BL21 (DE3) bioA
T6 sequence (B0F481 23-833 G513L): as the sequence (B0F481 23-833 A609I) above, with G491L, I587A counted along it
Method in brief: as §1

[7] = molecular target: T7, Arabidopsis thaliana BIO3-BIO1 (BioDA) mutants (Arabidopsis thaliana, UniProt B0F481, P508L)
T7 construct: with the predicted N-terminal mitochondrial transit peptide removed; 6xHis-tag (N); thrombin cleavage site (N); made in house; host or cells: E. coli BL21 (DE3) bioA
T7 sequence (B0F481 23-833 P508L): as the sequence (B0F481 23-833 A609I) above, with P486L, I587A counted along it
Method in brief: as §1

[8] = molecular target: T8, Arabidopsis thaliana BIO3-BIO1 (BioDA) mutants (Arabidopsis thaliana, UniProt B0F481, Q517D)
T8 construct: with the predicted N-terminal mitochondrial transit peptide removed; 6xHis-tag (N); thrombin cleavage site (N); made in house; host or cells: E. coli BL21 (DE3) bioA
T8 sequence (B0F481 23-833 Q517D): as the sequence (B0F481 23-833 A609I) above, with Q495D, I587A counted along it
Method in brief: as §1

[9] = molecular target: T9, Arabidopsis thaliana BIO3-BIO1 (BioDA) mutants (Arabidopsis thaliana, UniProt B0F481, Q517T)
T9 construct: with the predicted N-terminal mitochondrial transit peptide removed; 6xHis-tag (N); thrombin cleavage site (N); made in house; host or cells: E. coli BL21 (DE3) bioA
T9 sequence (B0F481 23-833 Q517T): as the sequence (B0F481 23-833 A609I) above, with Q495T, I587A counted along it
Method in brief: as §1

[10] = molecular target: T10, Arabidopsis thaliana BIO3-BIO1 (BioDA) mutants (Arabidopsis thaliana, UniProt B0F481, S509K)
T10 construct: with the predicted N-terminal mitochondrial transit peptide removed; 6xHis-tag (N); thrombin cleavage site (N); made in house; host or cells: E. coli BL21 (DE3) bioA
T10 sequence (B0F481 23-833 S509K): as the sequence (B0F481 23-833 A609I) above, with S487K, I587A counted along it
Method in brief: as §1

[11] = molecular target: T11, Arabidopsis thaliana BIO3-BIO1 (BioDA) mutants (Arabidopsis thaliana, UniProt B0F481, Y511D)
T11 construct: with the predicted N-terminal mitochondrial transit peptide removed; 6xHis-tag (N); thrombin cleavage site (N); made in house; host or cells: E. coli BL21 (DE3) bioA
T11 sequence (B0F481 23-833 Y511D): as the sequence (B0F481 23-833 A609I) above, with Y489D, I587A counted along it
Method in brief: as §1

[12] = molecular target: T12, Arabidopsis thaliana BIO3-BIO1 (BioDA) mutants (Arabidopsis thaliana, UniProt B0F481, Y511P)
T12 construct: with the predicted N-terminal mitochondrial transit peptide removed; 6xHis-tag (N); thrombin cleavage site (N); made in house; host or cells: E. coli BL21 (DE3) bioA
T12 sequence (B0F481 23-833 Y511P): as the sequence (B0F481 23-833 A609I) above, with Y489P, I587A counted along it
Method in brief: as §1

## CCn1c(Cn2ccc(C(F)(F)F)n2)cc(=O)c(C(=O)O)c1-c1ccc(Cl)c(Cl)c1 [Compound L, 2-(3,4-dichlorophenyl)-1-ethyl-4-oxo-6-[[3-(trifluoromethyl)pyrazol-1-yl]methyl]pyridine-3-carboxylic acid]
[1]
  inhibition at 0.01 µM: 29%
  inhibition at 0.075 µM: 20%
  inhibition at 0.5 µM: 0%
[2]
  inhibition at 0.01 µM: 0%
  inhibition at 0.075 µM: 0%
  inhibition at 0.5 µM: 6%
[3]
  inhibition at 0.01 µM: 0%
  inhibition at 0.075 µM: 0%
  inhibition at 0.5 µM: 32%
[4]
  inhibition at 0.01 µM: 0%
  inhibition at 0.075 µM: 0%
  inhibition at 0.5 µM: 21%
[5]
  inhibition at 0.01 µM: 10%
  inhibition at 0.075 µM: 15%
  inhibition at 0.5 µM: 11%
[6]
  inhibition at 0.01 µM: 58%
  inhibition at 0.075 µM: 88%
  inhibition at 0.5 µM: 97%
[7]
  inhibition at 0.01 µM: 16%
  inhibition at 0.075 µM: 48%
  inhibition at 0.5 µM: 80%
[8]
  inhibition at 0.01 µM: 0%
  inhibition at 0.075 µM: 0%
  inhibition at 0.5 µM: 0%

## CCOC(=O)c1nn(-c2ccc3c(c2)OC(F)(F)C(F)(F)O3)c2cccc(C(C)=O)c2c1=O [Compound A, ethyl 5-acetyl-4-oxo-1-(2,2,3,3-tetrafluoro-1,4-benzodioxin-6-yl)cinnoline-3-carboxylate]
[1]
  inhibition at 1 µM: 24%
[2]
  inhibition at 1 µM: 14%
[3]
  inhibition at 1 µM: 0%
[4]
  inhibition at 1 µM: 2%
[5]
  inhibition at 1 µM: 4%
[6]
  inhibition at 1 µM: 89%
[7]
  inhibition at 1 µM: 34%
[8]
  inhibition at 1 µM: 22%
[9]
  inhibition at 1 µM: 46%
[10]
  inhibition at 1 µM: 0%
[11]
  inhibition at 1 µM: 10%
[12]
  inhibition at 1 µM: 28%

## CCn1c(-c2ccc(Cl)c(Cl)c2)c(C(=O)O)c(=O)c2cc(F)ccc21 [Compound M, 2-(3,4-dichlorophenyl)-1-ethyl-6-fluoro-4-oxo-quinoline-3-carboxylic acid]
[1]
  inhibition at 0.2 µM: 2%
  inhibition at 1 µM: 0%
  inhibition at 5 µM: 78%
[2]
  inhibition at 0.2 µM: 0%
  inhibition at 1 µM: 0%
  inhibition at 5 µM: 0%
[3]
  inhibition at 0.2 µM: 27%
  inhibition at 1 µM: 25%
  inhibition at 5 µM: 66%
[4]
  inhibition at 0.2 µM: 0%
  inhibition at 1 µM: 1%
  inhibition at 5 µM: 15%
[5]
  inhibition at 0.2 µM: 0%
  inhibition at 1 µM: 0%
  inhibition at 5 µM: 0%
[6]
  inhibition at 0.2 µM: 54%
  inhibition at 1 µM: 85%
  inhibition at 5 µM: 97%
[7]
  inhibition at 0.2 µM: 18%
  inhibition at 1 µM: 55%
  inhibition at 5 µM: 82%
[8]
  inhibition at 0.2 µM: 6%
  inhibition at 1 µM: 2%
  inhibition at 5 µM: 0%
[9]
  inhibition at 0.2 µM: 14%
  inhibition at 1 µM: 39%
  inhibition at 5 µM: 71%
[10]
  inhibition at 0.2 µM: 41%
  inhibition at 1 µM: 77%
  inhibition at 5 µM: 90%
[11]
  inhibition at 0.2 µM: 38%
  inhibition at 1 µM: 81%
  inhibition at 5 µM: 96%
[12]
  inhibition at 0.2 µM: 48%
  inhibition at 1 µM: 89%
  inhibition at 5 µM: 98%

## CCn1c(C)c(-c2ccc(F)cc2F)c(=O)c(C(=O)O)c1-c1ccc(Cl)c(Cl)c1 [Compound C, 2-(3,4-dichlorophenyl)-5-(2,4-difluorophenyl)-1-ethyl-6-methyl-4-oxo-pyridine-3-carboxylic acid]
[1]
  inhibition at 0.2 µM: 7%
  inhibition at 1 µM: 24%
  inhibition at 5 µM: 42%
[2]
  inhibition at 0.2 µM: 5%
  inhibition at 1 µM: 0%
  inhibition at 5 µM: 9%
[3]
  inhibition at 0.2 µM: 19%
  inhibition at 1 µM: 57%
  inhibition at 5 µM: 86%
[4]
  inhibition at 0.2 µM: 0%
  inhibition at 1 µM: 2%
  inhibition at 5 µM: 17%
[5]
  inhibition at 0.2 µM: 0%
  inhibition at 1 µM: 0%
  inhibition at 5 µM: 1%
[6]
  inhibition at 0.2 µM: 69%
  inhibition at 1 µM: 92%
  inhibition at 5 µM: 98%
[7]
  inhibition at 0.2 µM: 37%
  inhibition at 1 µM: 80%
  inhibition at 5 µM: 92%
[8]
  inhibition at 0.2 µM: 0%
  inhibition at 1 µM: 0%
  inhibition at 5 µM: 0%
[9]
  inhibition at 0.2 µM: 14%
  inhibition at 1 µM: 47%
  inhibition at 5 µM: 73%
[10]
  inhibition at 0.2 µM: 54%
  inhibition at 1 µM: 88%
  inhibition at 5 µM: 95%
[11]
  inhibition at 0.2 µM: 68%
  inhibition at 1 µM: 93%
  inhibition at 5 µM: 99%
[12]
  inhibition at 0.2 µM: 53%
  inhibition at 1 µM: 95%
  inhibition at 5 µM: 99%
